In patent US11833254B2, “Discoidal nano universal platform for efficient delivery of PNAs” (University of Connecticut, priority 2020, dated 2023):
{ooo} = Boc-miniPEG-3 linker between TAMRA and the PNA; {TAMRA} = TAMRA dye conjugated to the PNA N-terminus; {Lys} = C-terminal lysine residue of the PNA

Experiment: Negative-stain transmission electron microscopy (TEM) of lipid/PNA complexes
Type: physicochemical
Method: Transmission electron microscopy (TEM): Negatively-stained transmission electron microscopic (TEM) images were obtained using FEI Tecnai T12. The samples were prepared by spreading 5 μL 0.001 wt. % solution on a 400 mesh Formvar/carbon film copper grid (Electron Microscopy Sciences, PA, USA) and negative staining was applied with 10 mg/mL of Uranyl acetate (SPI Supplies, PA, USA). The grids were then dried at 25° C. The accelerating voltage of the TEM was set at 80 kV.

Substance | morphology (TEM)
5′ TAMRA-ooo-ACCCCTATCACGATTAGCATTAA-Lys 3′ (all peptide nucleic acid (PNA), 5' {TAMRA}-{ooo}, 3' {Lys}) [PNA-155] | uniform discoidal morphology
5′ TAMRA-ooo-TCAGCCGCTGTCACACGCACAG-Lys-3′ (all peptide nucleic acid (PNA), 5' {TAMRA}-{ooo}, 3' {Lys}) [PNA-210] | uniform discoidal morphology
